Reference: patent US12084458B2, “Substituted pyridines, pyridazines, and pyrimidines as TYK2 inhibitors” (Sudo Biosciences Limited, priority 2021, dated 2024)

Assays:
[1] = test system: HEK-Blue IL-2 reporter cells (IL-2-stimulated STAT5 SEAP reporter); assay: HEK-Blue IL-2 SEAP reporter assay for determining selectivity; type: cell-based; conditions: 4 ng/mL human recombinant IL-2
In short: (§1)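 Cells were plated for 20-22 h, then pretreated with serially diluted compound for 60 min. They were stimulated for 24 h with 4 ng/mL human recombinant IL-2 or 50 ng/mL human recombinant IFNγ, and SEAP induction was read with QUANTI-Blue.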

TYK2 kinase domain (JH1) = target: T1, TYK2 kinase domain (JH1) (Homo sapiens, UniProt P29597); assay: HTRF-based selectivity assay, TYK2 catalytic domain; type: biochemical; conditions: recombinant catalytic domain, ATP 20 μM
T1 construct: recombinant purified His or GST-tagged catalytic domain for each enzyme; made in house
T1 sequence (P29597 897-1176 limits assumed): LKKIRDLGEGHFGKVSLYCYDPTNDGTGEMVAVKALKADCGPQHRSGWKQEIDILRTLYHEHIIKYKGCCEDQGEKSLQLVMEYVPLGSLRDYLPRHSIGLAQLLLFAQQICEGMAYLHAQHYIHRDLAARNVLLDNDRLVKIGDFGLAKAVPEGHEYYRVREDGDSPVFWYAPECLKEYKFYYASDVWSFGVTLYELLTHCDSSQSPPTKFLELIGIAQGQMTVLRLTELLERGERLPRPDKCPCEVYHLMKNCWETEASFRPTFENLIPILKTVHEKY
Description: (§2) Example B-2: HTRF-Based Selectivity Assay
(§3) The ability of compounds to inhibit the activity of JAK1, JAK2, JAK3 and TYK2 is measured using a recombinant purified His or GST-tagged catalytic domain for each enzyme (JAK1, JAK2 and TYK2 are generated in-house; JAK3 was purchased from Carna biosciences, Cat #08-046) in an HTRF format biochemical assay. The reactions employs a commercial peptide substrate from Cisbio (Cat #62TK0PEC). The basic assay protocol is as follows: first, 2.5 μL of diluted compounds (4×) in DMSO are dispensed into a 384-well Optiplate. Next, 2.5 μL of enzyme (final concentrations for enzymes are: TYK2—700 ng/mL, JAK1—80.6 ng/mL, JAK2—2.1 ng/mL and JAK3—171.8 ng/mL) is added and incubated at RT for 5-20 min. Finally, 5 μl of mixture of 2× ATP [Final concentration 20 μM for TYK2, 21.43 μM for JAK1, 14.7 μM for JAK2 and 2.12 μM for JAK3]+2× Substrate [Final concentration 217 nM for TYK2, 454.7 nM for JAK1, 200 nM for JAK2 and 257.4 nM for JAK3] is added to 384 well Optiplate. Composition of Kinase assay buffer used in the assay is as follows: HEPES 50 mM, EGTA 1 mM, MgCl2 10 mM, DTT 2 mM, Tween-20 0.01% and water. Then the plates are shaken and then incubated at 26.5° C. for 60 min.

JAK2 kinase domain (JH1) = target: T2, JAK2 kinase domain (JH1) (Homo sapiens, UniProt O60674); assay: HTRF-based selectivity assay, JAK2 catalytic domain; type: biochemical; conditions: recombinant catalytic domain, ATP 14.7 μM
T2 construct: recombinant purified His or GST-tagged catalytic domain for each enzyme; made in house
T2 sequence (O60674 849-1124 limits assumed): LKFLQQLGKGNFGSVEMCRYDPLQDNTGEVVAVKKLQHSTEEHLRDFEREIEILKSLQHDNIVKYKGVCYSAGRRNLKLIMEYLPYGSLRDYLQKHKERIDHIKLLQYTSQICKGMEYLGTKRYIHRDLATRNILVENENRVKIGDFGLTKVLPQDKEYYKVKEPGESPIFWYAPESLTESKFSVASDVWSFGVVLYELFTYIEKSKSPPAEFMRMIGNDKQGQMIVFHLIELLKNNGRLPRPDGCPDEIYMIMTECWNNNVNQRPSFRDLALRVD
Description: as §2, §3

[2] = test system: HEK-Blue IL-23 cells (IL-23-stimulated STAT3 SEAP reporter; TYK2 JH2); assay: HEK-Blue IL-23 SEAP reporter assay for profiling TYK2 pseudokinase (JH2) inhibition; type: cell-based; conditions: 10 ng/mL human recombinant IL-23, SEAP reporter, read-out: IL23 (TYK2 inhibitory activity, IC50)
In short: (§4)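 Cells were pretreated 60 min with serially diluted compounds, then stimulated with 10 ng/mL human IL-23 for 22-24 hours (STAT3 line) or 1 ng/mL human IFNα for 16-18 h (STAT1 line). SEAP induction read with QUANTI-Blue.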

[3] = test system: HEK-Blue IFNγ reporter cells (IFNγ-stimulated STAT1 SEAP reporter); assay: HEK-Blue IFNγ SEAP reporter assay for determining selectivity; type: cell-based; conditions: Homo sapiens, HEK-Blue, 50 ng/mL human recombinant IFNγ, read-out: IFN-γ (SEAP selectivity, IC50)
In short: as §1

JAK1 kinase domain (JH1) = target: T3, JAK1 kinase domain (JH1) (Homo sapiens, UniProt P23458); assay: HTRF-based selectivity assay, JAK1 catalytic domain; type: biochemical; conditions: recombinant catalytic domain, ATP 21.43 μM
T3 construct: recombinant purified His or GST-tagged catalytic domain for each enzyme; made in house
T3 sequence (P23458 875-1153 limits assumed): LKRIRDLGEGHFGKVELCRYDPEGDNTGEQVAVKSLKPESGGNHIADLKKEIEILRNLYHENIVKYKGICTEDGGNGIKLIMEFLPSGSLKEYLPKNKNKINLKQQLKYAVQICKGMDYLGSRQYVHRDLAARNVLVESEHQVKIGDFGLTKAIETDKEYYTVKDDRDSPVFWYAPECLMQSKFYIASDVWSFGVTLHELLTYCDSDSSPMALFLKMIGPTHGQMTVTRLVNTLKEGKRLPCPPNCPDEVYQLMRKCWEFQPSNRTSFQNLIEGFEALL
Description: as §2, §3

JAK3 kinase domain (JH1) = target: T4, JAK3 kinase domain (JH1) (Homo sapiens, UniProt P52333); assay: HTRF-based selectivity assay, JAK3 catalytic domain; type: biochemical; conditions: recombinant catalytic domain, ATP 2.12 μM
T4 construct: recombinant purified His or GST-tagged catalytic domain for each enzyme; purchased Carna biosciences 08-046
T4 sequence (P52333 822-1111 limits assumed): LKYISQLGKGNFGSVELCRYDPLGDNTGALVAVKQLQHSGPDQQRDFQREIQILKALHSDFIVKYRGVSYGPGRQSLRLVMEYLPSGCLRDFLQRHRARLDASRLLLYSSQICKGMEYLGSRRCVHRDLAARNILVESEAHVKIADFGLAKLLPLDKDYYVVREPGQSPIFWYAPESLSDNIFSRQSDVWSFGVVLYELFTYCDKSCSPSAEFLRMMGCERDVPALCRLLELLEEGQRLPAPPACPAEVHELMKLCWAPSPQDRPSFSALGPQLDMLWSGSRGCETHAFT
Description: as §2, §3

[4] = test system: HEK-Blue IFNα/β cells (IFNα-stimulated STAT1 SEAP reporter; TYK2 JH2); assay: HEK-Blue IFNα/β SEAP reporter assay for profiling TYK2 pseudokinase (JH2) inhibition; type: cell-based; conditions: Homo sapiens, HEK-Blue, 1 ng/mL human recombinant IFNα, read-out: IFNα (TYK2 inhibitory activity, IC50)
In short: as §4

| Structure (SMILES) | IC50 [1] | IC50 (TYK2 kinase domain (JH1)) | IC50 (JAK2 kinase domain (JH1)) | IC50 [2] | IC50 [3] | IC50 (JAK1 kinase domain (JH1)) | IC50 (JAK3 kinase domain (JH1)) | IC50 [4] |
| --- | --- | --- | --- | --- | --- | --- | --- | --- |
| [2H]C([2H])([2H])NC(=O)c1cnc(NC(=O)C2CC2)cc1Nc1cccc2c1N(C)Cc1ncnn1-2 [Compound 6, 6-(cyclopropanecarboxamido)-N-(methyl-d3)-4-((5-methyl-4,5-dihydro-[1,2,4]triazolo[1,5-a]quinoxalin-6-yl)amino)nicotinamide] | > 1000 nM | > 1000 nM | > 1000 nM | < 30 nM | 300 to 1000 nM | > 1000 nM | > 1000 nM | < 30 nM |
| [2H]C([2H])([2H])NC(=O)c1nnc(NC(=O)C2CC2)cc1Nc1cccc2c1N(C)Cc1ncnn1-2 [Compound 7, 6-(cyclopropanecarboxamido)-N-(methyl-d3)-4-((5-methyl-4,5-dihydro-[1,2,4]triazolo[1,5-a]quinoxalin-6-yl)amino)pyridazine-3-carboxamide] | > 1000 nM | > 1000 nM | > 1000 nM | < 30 nM | 30 to 300 nM | > 1000 nM | > 1000 nM | 30 to 300 nM |
| [2H]C([2H])([2H])NC(=O)c1nnc(NC(=O)C2CC2)cc1Nc1cccc2c1N(C([2H])([2H])[2H])Cc1nn(C)nc1-2 [Compound 48, 6-(cyclopropanecarboxamido)-N-(methyl-d3)-4-((2-methyl-5-(methyl-d3)-4,5-dihydro-2H-[1,2,3]triazolo[4,5-c]quinolin-6-yl)amino)pyridazine-3-carboxamide] | 300 to 1000 nM | > 1000 nM | > 1000 nM | < 30 nM | 30 to 300 nM | > 1000 nM | > 1000 nM | < 30 nM |
| CNC(=O)c1nnc(NC(=O)C2CC2)cc1Nc1cccc2c1OCCn1cnnc1-2 [Compound 72, 6-(cyclopropanecarboxamido)-4-((5,6-dihydrobenzo[f][1,2,4]triazolo[4,3-d][1,4]oxazepin-8-yl)amino)-N-methylpyridazine-3-carboxamide] | > 1000 nM | > 1000 nM | 30 to 300 nM | 300 to 1000 nM | > 1000 nM | > 1000 nM | 300 to 1000 nM | > 1000 nM |
| CNC(=O)c1nnc(Nc2ccc(F)cn2)cc1Nc1cccc2c1OCCn1cnnc1-2 [Compound 73, 4-((5,6-dihydrobenzo[f][1,2,4]triazolo[4,3-d][1,4]oxazepin-8-yl)amino)-6-((5-fluoropyridin-2-yl)amino)-N-methylpyridazine-3-carboxamide] | 300 to 1000 nM | > 1000 nM | 300 to 1000 nM | 30 to 300 nM | 300 to 1000 nM | > 1000 nM | > 1000 nM | 300 to 1000 nM |
| CNC(=O)c1nnc(Nc2ccc(F)cn2)cc1Nc1cccc2c1N(C)CCn1cnnc1-2 [Compound 76, 6-((5-fluoropyridin-2-yl)amino)-N-methyl-4-((7-methyl-6,7-dihydro-5H-benzo[f][1,2,4]triazolo[4,3-d][1,4]diazepin-8-yl)amino)pyridazine-3-carboxamide] | > 1000 nM | > 1000 nM | 300 to 1000 nM | < 30 nM | 300 to 1000 nM | > 1000 nM | 300 to 1000 nM | 30 to 300 nM |
| CNC(=O)c1nnc(NC(=O)C2CC2)cc1Nc1cccc2c1N(C)CCn1cnnc1-2 [Compound 77, 6-(cyclopropanecarboxamido)-N-methyl-4-((7-methyl-6,7-dihydro-5H-benzo[f][1,2,4]triazolo[4,3-d][1,4]diazepin-8-yl)amino)pyridazine-3-carboxamide] | > 1000 nM | > 1000 nM | 30 to 300 nM | < 30 nM | 300 to 1000 nM | > 1000 nM | 300 to 1000 nM | 30 to 300 nM |
| [2H]C([2H])([2H])NC(=O)c1cnc(Nc2ccc(F)cn2)cc1Nc1cccc2c1N(C)CCn1cnnc1-2 [Compound 79, 6-((5-fluoropyridin-2-yl)amino)-N-(methyl-d3)-4-((7-methyl-6,7-dihydro-5H-benzo[f][1,2,4]triazolo[4,3-d][1,4]diazepin-8-yl)amino)nicotinamide] | < 30 nM | > 1000 nM | > 1000 nM | 30 to 300 nM | < 30 nM | > 1000 nM | > 1000 nM | 30 to 300 nM |
| [2H]C([2H])([2H])NC(=O)c1cnc(Nc2cc(C)nc(C)n2)cc1Nc1cccc2c1N(C)CCn1cnnc1-2 [Compound 80, 6-((2,6-dimethylpyrimidin-4-yl)amino)-N-(methyl-d3)-4-((7-methyl-6,7-dihydro-5H-benzo[f][1,2,4]triazolo[4,3-d][1,4]diazepin-8-yl)amino)nicotinamide] | > 1000 nM | > 1000 nM | 30 to 300 nM | 30 to 300 nM | > 1000 nM | > 1000 nM | > 1000 nM | 30 to 300 nM |
| [2H]C([2H])([2H])NC(=O)c1cnc(NC(=O)C2CC2)cc1Nc1cc(F)cc2c1N(C)Cc1nc(C)nn1-2 [Compound 83, 6-(cyclopropanecarboxamido)-4-((8-fluoro-2,5-dimethyl-4,5-dihydro-[1,2,4]triazolo[1,5-a]quinoxalin-6-yl)amino)-N-(methyl-d3)nicotinamide] | > 1000 nM | > 1000 nM | > 1000 nM | < 30 nM | > 1000 nM | > 1000 nM | > 1000 nM | 30 to 300 nM |
| [2H]C([2H])([2H])NC(=O)c1cnc(NC(=O)C2CC2)cc1Nc1nccc2c1N(C)Cc1nc(C)nn1-2 [Compound 84, 6-(cyclopropanecarboxamido)-4-((2,5-dimethyl-4,5-dihydropyrido[3,4-e][1,2,4]triazolo[1,5-a]pyrazin-6-yl)amino)-N-(methyl-d3)nicotinamide] | > 1000 nM | > 1000 nM | > 1000 nM | < 30 nM | > 1000 nM | > 1000 nM | > 1000 nM | 30 to 300 nM |
| [2H]C([2H])([2H])NC(=O)c1nnc(NC(=O)C2CC2)cc1Nc1nccc2c1N(C)Cc1nc(C)nn1-2 [Compound 85, 6-(cyclopropanecarboxamido)-4-((2,5-dimethyl-4,5-dihydropyrido[3,4-e][1,2,4]triazolo[1,5-a]pyrazin-6-yl)amino)-N-(methyl-d3)pyridazine-3-carboxamide] | > 1000 nM | > 1000 nM | > 1000 nM | < 30 nM | 30 to 300 nM | > 1000 nM | > 1000 nM | 30 to 300 nM |
